Values quoted from earlier work in US20070167418A1 (priority 2004, published 2007).
Read-outs that look alike come from different tables or passages of the source.

Legend:
[1] = system: ED; details: oral
[2] = system: men with ED; details: intraurethral suppositories
[3] = in vivo
[4] = system: men with ED; details: 100 mg; placebo twenty-two percent
[5] = not given; remark: listed apart in the source

COC(=O)[C@@H]1[C@H]2C[C@H]3c4[nH]c5ccccc5c4CCN3C[C@@H]2CC[C@@H]1O [Yohimbine]
efficacy in the treatment of ED [1]: limited efficacy

CCCCC[C@H](O)/C=C/[C@H]1[C@H](O)CC(=O)[C@@H]1CCCCCCC(=O)O [alprostadil]
efficacy compared with penile injection [2]: less effective

CC(C)NCC(O)COc1ccc(CC(N)=O)cc1 (stereo not shown) [atenolol]
men reporting ED after beginning treatment (50 mg, men informed of its sexual adverse effects): 31% | men reporting ED after beginning treatment (similarly treated, men blinded as to the study drug): 3%

CCCc1nn(C)c2c(=O)[nH]c(-c3cc(S(=O)(=O)N4CCN(C)CC4)ccc3OCC)nc12 [sildenafil]
half-life [3]: four to five | men achieving successful intercourse [4]: sixty-nine

CN1CC(=O)N2[C@H](c3ccc4c(c3)OCO4)c3[nH]c4ccccc4c3C[C@@H]2C1=O [tadalafil]
half-life [3]: approximately eighteen

C[C@]12CC[C@H]3[C@@H](CCC4=CC(=O)CC[C@@]43C)[C@@H]1CC[C@@H]2O [testosterone]
restoring physiological testosterone levels ([5]; gels): high efficacy | men with erythrocytosis ([5]; gels or patches): 5% | men with gynecomastia, peripheral edema, exacerbation or de novo sleep apnea, acne and mild weight gain ([5]; in vivo): less than 2% | men with erythrocytosis ([5]; injections): ≤ 50% | hepatotoxicity risk ([5]; oral agents available in the United States): significant risk of hepatotoxity | liver toxicity ([5]; transdermal or intramuscular preparations): does not seem to be associated | men with local skin reactions ([5]; transdermal, patches): ≤ 40%

CCCc1nc(C)c2c(=O)[nH]c(-c3cc(S(=O)(=O)N4CCN(CC)CC4)ccc3OCC)nn12 [vardenafil]
half-life [3]: four to five | time of peak serum concentrations [3]: approximately one
